Experimental data: US11220502B2, “Sulfone compounds and derivatives for the treatment and prophylaxis of virus infection” (Hoffmann-La Roche Inc., priority 2018, dated 2022)
Like-named read-outs stand apart in the source and are kept apart here.

Key:
human TLR7 = molecular target: T1, human TLR7 (Homo sapiens, UniProt Q9NYK1); experiment: HEK293-Blue-hTLR-7 cells assay (SEAP reporter, NF-κB activation); assay type: cell-based; conditions: for EC50: HEK293-Blue-hTLR-7 cells, 20 hrs incubation, SEAP reporter; for Ratio (EC50(prodrug)/EC50(active form)): calculated ratio of prodrug EC50 to EC50 of corresponding active form
T1 sequence (Q9NYK1 27-1049): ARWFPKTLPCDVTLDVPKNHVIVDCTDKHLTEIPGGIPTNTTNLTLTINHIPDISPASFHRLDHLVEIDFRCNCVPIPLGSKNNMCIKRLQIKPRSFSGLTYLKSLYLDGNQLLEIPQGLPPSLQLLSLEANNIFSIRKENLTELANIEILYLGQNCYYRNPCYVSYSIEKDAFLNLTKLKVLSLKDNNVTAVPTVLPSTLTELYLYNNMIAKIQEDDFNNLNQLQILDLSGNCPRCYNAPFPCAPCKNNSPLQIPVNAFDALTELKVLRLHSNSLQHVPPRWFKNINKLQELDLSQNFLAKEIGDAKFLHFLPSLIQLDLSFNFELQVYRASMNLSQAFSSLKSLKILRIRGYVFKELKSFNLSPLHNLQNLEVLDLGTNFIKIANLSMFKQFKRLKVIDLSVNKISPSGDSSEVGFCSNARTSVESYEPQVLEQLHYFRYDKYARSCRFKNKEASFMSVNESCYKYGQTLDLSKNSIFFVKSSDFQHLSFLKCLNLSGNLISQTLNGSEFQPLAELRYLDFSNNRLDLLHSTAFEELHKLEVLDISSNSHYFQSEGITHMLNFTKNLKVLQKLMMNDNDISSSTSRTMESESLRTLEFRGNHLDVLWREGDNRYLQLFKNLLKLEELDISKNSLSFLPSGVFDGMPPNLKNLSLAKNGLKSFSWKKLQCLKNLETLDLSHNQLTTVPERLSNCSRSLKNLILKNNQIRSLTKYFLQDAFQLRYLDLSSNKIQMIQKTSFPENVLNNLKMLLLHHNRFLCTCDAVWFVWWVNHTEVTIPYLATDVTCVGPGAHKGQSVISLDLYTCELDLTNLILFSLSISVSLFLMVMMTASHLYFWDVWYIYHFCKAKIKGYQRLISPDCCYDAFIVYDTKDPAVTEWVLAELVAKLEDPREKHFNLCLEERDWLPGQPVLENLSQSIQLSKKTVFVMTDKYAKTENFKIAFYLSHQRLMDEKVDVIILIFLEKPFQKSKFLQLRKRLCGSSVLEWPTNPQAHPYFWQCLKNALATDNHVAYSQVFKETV
From the text: HEK293-Blue-hTLR-7 Cells Assay
A stable HEK293-Blue-hTLR-7 cell line was purchased from InvivoGen (Cat. #: hkb-ht1r7, San Diego, Calif., USA). These cells were designed for studying the stimulation of human TLR7 by monitoring the activation of NF-κB. A SEAP (secreted embryonic alkaline phosphatase) reporter gene was placed under the control of the IFN-β minimal promoter fused to five NF-κB and AP-1-binding sites. The SEAP was induced by activating NF-κB and AP-1 via stimulating HEK-Blue hTLR7 cells with TLR7 ligands. Therefore the reporter expression was regulated by the NF-κB promoter upon stimulation of human TLR7 for 20 hrs. The cell culture supernatant SEAP reporter activity was determined using QUANTI-Blue™ kit (Cat. #: rep-qb1, Invivogen, San Diego, Calif., USA) at a wavelength of 640 nm, a detection medium that turns purple or blue in the presence of alkaline phosphatase.
HEK293-Blue-hTLR7 cells were incubated at a density of 250,000˜450,000 cells/mL in a volume of 180 μL in a 96-well plate in Dulbecco's Modified Eagle's medium (DMEM) containing 4.5 g/L glucose, 50 U/mL penicillin, […], […], 2 mM L-glutamine, 10% (V/V) heat-inactivated fetal bovine serum for 24 hrs. Then the HEK293-Blue-hTLR-7 cells were incubated with addition of 20 μL test compound in a serial dilution in the presence of final DMSO at 1% and perform incubation under 37° C. in a CO2 incubator for 20 hrs. Then 20 μL of the supernatant from each well was incubated with 180 μL Quanti-blue substrate solution at 37° C. for 2 hrs and the absorbance was read at 620˜655 nm using a spectrophotometer. The signalling pathway that TLR7 activation leads to downstream NF-κB activation has been widely accepted, and therefore similar reporter assay was also widely used for evaluating TLR7 agonist (Tsuneyasu Kaisho and Takashi Tanaka, Trends in Immunology, Volume 29, Issue 7, July 2008, […]; Hiroaki Hemmi et al, Nature Immunology 3, 196-200 (2002)).
The Compounds and Examples of the present invention were tested in HEK293-hTLR-7 assay for their TLR7 agonism activity as described herein and results are listed in Table 1. […] The calculated ratio of EC50(prodrug)/EC50(active form) were within the range from 27.7 to about 8233.

[1] = Single dose PK study in Male Wister-Han Rats; assay type: in vivo
Procedure: Single dose PK study in Male Wister-Han Rats The single dose PK in Male Wister-Han Rats was performed to assess pharmacokinetic properties of tested compounds. Two groups of animals were dosed via Gavage (POE) of the respective compound. Blood samples (approximately 20 μL) were collected via Jugular vein or an alternate site at 15 min, 30 min, 1 h, 2 h, 4 h, 7 h and 24 h post-dose groups. Blood samples were placed into tubes containing EDTA-K2 anticoagulant and centrifuged at 5000 rpm for 6 min at 4° C. to separate plasma from the samples. After centrifugation, the resulting plasma was transferred to clean tubes for bioanalysis of both prodrug and active form on LC/MS/MS. In the groups that prodrugs were dosed, the concentration of prodrugs in the plasma samples was under the detection limit. The “tested compound” in Table 3 was used as the internal standard for testing the metabolite (active form) of “dose compound” in vivo. The pharmacokinetic parameters were calculated using non-compartmental module of WinNonlin® Professional 6.2. The peak concentration (Cmax) was recorded directly from experimental observations. The area under the plasma concentration-time curve ([…]) was calculated using the linear trapezoidal rule up to the last detectable concentration. Cmax and AUC0-last are two critical PK parameters related to the in vivo efficacy of the tested compound. […]

[2] = prodrug, read-out: HEK293-hTLR-7 EC50 (Prodrug)
[3] = corresponding active form, read-out: HEK293-hTLR-7 EC50 (Active form)

| SMILES | EC50 (human TLR7; [2]) [nM] | Ratio (EC50(prodrug)/EC50(active form)) (human TLR7) | AUC0-last folds increase comparing with Compound 8a ([1]; oral administration, rats, prodrug versus active form) [folds] | EC50 (human TLR7; [3]) [nM] | Cmax (nM) ([1]; 5 mg/kg oral dosing, male Wister-Han rats, plasma, tested compound Compound 8a (active form)) |
| --- | --- | --- | --- | --- | --- |
| CCCN(C)C(=O)n1c(=O)n(Cc2ccc(Cl)cc2)c2nc(S(=O)(=O)CC)nc(N)c21 [Example 8, 6-Amino-9-[(4-chlorophenyl)methyl]-2-ethylsulfonyl-N-methyl-8-oxo-N-propyl-purine-7-carboxamide] | 14900 | 179.5 | 14.5 |  |  |
| CCS(=O)(=O)c1nc(N)c2c(n1)n(Cc1ccc(C)cc1)c(=O)n2C(=O)N1CCCC1 [Example 17, 6-Amino-2-ethylsulfonyl-9-(p-tolylmethyl)-7-(pyrrolidine-1-carbonyl)purin-8-one] | 67000 | 1030.8 |  |  |  |
| CCCN(C)C(=O)n1c(=O)n(Cc2ccc(F)cc2)c2nc(S(=O)(=O)CC)nc(N)c21 [Example 18, 6-Amino-2-ethylsulfonyl-9-[(4-fluorophenyl)methyl]-N-methyl-8-oxo-N-propyl-purine-7-carboxamide] | 2400 | 40 |  |  |  |
| CCCN(C)C(=O)n1c(=O)n(Cc2ccc(Cl)cc2)c2nc(S(=O)(=O)CCC)nc(N)c21 [Example 6, 6-Amino-9-[(4-chlorophenyl)methyl]-N-methyl-8-oxo-N-propyl-2-propylsulfonyl-purine-7-carboxamide] | 2600 | 123.8 |  |  |  |
| CCCS(=O)(=O)c1nc(N)c2c(n1)n(Cc1ccc(Cl)cc1)c(=O)n2C(=O)N(C)CC [Example 7, 6-Amino-9-[(4-chlorophenyl)methyl]-N-ethyl-N-methyl-8-oxo-2-propylsulfonyl-purine-7-carboxamide] | 3200 | 152.4 |  |  |  |
| CCS(=O)(=O)c1nc(N)c2c(n1)n(Cc1ccc(Cl)cc1)c(=O)n2C(=O)N(C)CCOC [Example 11, 6-Amino-9-[(4-chlorophenyl)methyl]-2-ethylsulfonyl-N-(2-methoxyethyl)-N-methyl-8-oxo-purine-7-carboxamide] | 10100 | 121.7 |  |  |  |

More lines, now with the values ahead:

| EC50 (human TLR7; [2]) [nM] | Ratio (EC50(prodrug)/EC50(active form)) (human TLR7) | AUC0-last folds increase comparing with Compound 8a ([1]; oral administration, rats, prodrug versus active form) [folds] | EC50 (human TLR7; [3]) [nM] | Cmax (nM) ([1]; 5 mg/kg oral dosing, male Wister-Han rats, plasma, tested compound Compound 8a (active form)) | SMILES |
| --- | --- | --- | --- | --- | --- |
|  |  |  | 83 | Not detected | CCS(=O)(=O)c1nc(N)c2[nH]c(=O)n(Cc3ccc(Cl)cc3)c2n1 [Compound 8a, 6-amino-9-[(4-chlorophenyl)methyl]-2-ethylsulfonyl-7H-purin-8-one] |
|  |  |  | 65 |  | CCCS(=O)(=O)c1nc(N)c2[nH]c(=O)n(Cc3ccc(C)cc3)c2n1 [Compound 12a, 6-amino-2-(propylsulfonyl)-9-(p-tolylmethyl)-7H-purin-8-one] |
